Data from patent US20080058309A1, “Novel Compounds 171” (ASTRAZENECA AB, priority 2006, published 2008).
Where a name gives a salt, the structure may show the parent alone.

target: T1, P2X7 receptor (Homo sapiens, UniProt Q99572); experiment: P2X7 receptor antagonist test: bbATP-induced ethidium bromide fluorescence in THP-1 cells; type: cell-based; details: negative logarithm of concentration reducing bbATP agonist activity by 50%, 10^-5M bbATP, 37° C. one hour
T1 construct: 200 μl of a suspension of THP-1 cells; endogenous in cells; host or cells: THP-1 cells
T1 sequence (Q99572 1-595): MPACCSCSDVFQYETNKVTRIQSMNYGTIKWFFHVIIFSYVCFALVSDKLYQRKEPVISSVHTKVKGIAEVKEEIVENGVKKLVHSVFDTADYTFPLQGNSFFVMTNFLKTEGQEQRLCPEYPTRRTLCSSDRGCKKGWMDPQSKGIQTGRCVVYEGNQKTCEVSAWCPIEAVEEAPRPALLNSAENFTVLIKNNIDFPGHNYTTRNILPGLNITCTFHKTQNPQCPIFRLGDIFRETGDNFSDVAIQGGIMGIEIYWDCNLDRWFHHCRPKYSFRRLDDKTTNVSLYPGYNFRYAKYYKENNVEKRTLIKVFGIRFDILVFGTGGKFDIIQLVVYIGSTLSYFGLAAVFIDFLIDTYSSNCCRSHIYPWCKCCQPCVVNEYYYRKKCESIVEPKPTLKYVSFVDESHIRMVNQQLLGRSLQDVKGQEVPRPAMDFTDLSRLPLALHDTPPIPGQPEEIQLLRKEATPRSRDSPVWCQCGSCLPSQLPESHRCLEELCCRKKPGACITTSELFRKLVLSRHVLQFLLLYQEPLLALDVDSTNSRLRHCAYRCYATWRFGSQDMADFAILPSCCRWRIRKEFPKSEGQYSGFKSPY
Text: Certain compounds such as benzoylbenzoyl adenosine triphosphate (bbATP) are known to be agonists of the P2X7 receptor, effecting the formation of pores in the plasma membrane (Drug Development Research (1996), 37(3), p. 126). Consequently, when the receptor is activated using bbATP in the presence of ethidium bromide (a fluorescent DNA probe), an increase in the fluorescence of intracellular DNA-bound ethidium bromide is observed. The increase in fluorescence can be used as a measure of P2X7 receptor activation and therefore to quantify the effect of a compound on the P2X7 receptor.
In this manner, each of the title compounds of the Examples was tested for antagonist activity at the P2X7 receptor. Thus, the test was performed in 96-well flat bottomed microtitre plates, the wells being filled with 250 μl of test solution comprising 200 μl of a suspension of THP-1 cells (2.5×10^6 cells/ml) containing 10^−4M ethidium bromide, 25 μl of a high potassium buffer solution containing 10^−5M bbATP, and 25 μl of the high potassium buffer solution containing concentrations of test compound typically from 30 μM-0.001 μM. The plate was covered with a plastics sheet and incubated at 37° C. for one hour. The plate was then read in a Perkin-Elmer fluorescent plate reader, excitation 520 nm, emission 595 nm, slit widths: Ex 15 nm, Em 20 nm. […]

| SMILES | IC50 [nM] |
| --- | --- |
| N#Cc1cccc(NCC(=O)Nc2c(Cl)ccc3nc(N4CC[C@@H](O)C4)ccc23)c1 [Example 7, N-[6-Chloro-2-[(3R)-3-hydroxy-1-pyrrolidinyl]-5-quinolinyl]-2-[(3-cyanophenyl)amino]-acetamide] | 79.4 |
| O=C(CSc1ccccc1)Nc1c(Cl)ccc2nc(N3CC[C@@H](O)C3)ccc12 [Example 6, N-[6-Chloro-2-[(3R)-3-hydroxy-1-pyrrolidinyl]-5-quinolinyl]-2-(phenylthio)-acetamide] | 398 |

tested on: not given; experiment: not given; details: not given

| SMILES | melting point |
| --- | --- |
| O=C(CNc1ccc(F)c(F)c1)Nc1c(Cl)ccc2nc(N3CC[C@@H](O)C3)ccc12 | 238 to 240 °C |
| O=C(CNc1ccccc1)Nc1c(Cl)ccc2nc(N3CC[C@@H](O)C3)ccc12 | 230 to 232 °C |
| O=C(CNc1cccc(F)c1)Nc1c(Cl)ccc2nc(N3CC[C@@H](O)C3)ccc12 | 218 to 220 °C |
| O=C(CNc1ccc(F)cc1)Nc1c(Cl)ccc2nc(N3CC[C@@H](O)C3)ccc12 | 242 to 246 °C |
| O=C(CSc1ccccc1)Nc1c(Cl)ccc2nc(N3CC[C@@H](O)C3)ccc12 [Example 6, N-[6-Chloro-2-[(3R)-3-hydroxy-1-pyrrolidinyl]-5-quinolinyl]-2-(phenylthio)-acetamide] | 246 to 249 °C |

Next, values leading:

| melting point | SMILES |
| --- | --- |
| 215 to 219 °C | O=C(CNc1ccccc1Cl)Nc1c(Cl)ccc2nc(N3CC[C@@H](O)C3)ccc12 |
| 135 to 138 °C | CC(O)C(O)c1ccc2c(NC(=O)CNc3ccc(F)cc3)c(Cl)ccc2n1 (stereo not shown) |
| 180 °C (dec.) | O=C(CNc1cccc(Cl)c1)Nc1c(Cl)ccc2nc(N3CC[C@@H](O)C3)ccc12 (as salt: hydrochloride) |
| 175 °C (dec.) | O=C(CNc1ccc(Cl)cc1)Nc1c(Cl)ccc2nc(N3CC[C@@H](O)C3)ccc12 (as salt: hydrochloride) |
| 233 to 235 °C | O=C(COc1ccccc1)Nc1c(Cl)ccc2nc(N3CC[C@@H](O)C3)ccc12 |
| 230 to 233 °C | N#Cc1ccc(NCC(=O)Nc2c(Cl)ccc3nc(N4CC[C@@H](O)C4)ccc23)cc1 |
